Measured values taken from patent US9670204B2, “Compounds and pharmaceutical compositions thereof for the treatment of inflammatory disorders” (Galapagos NV, priority 2013, dated 2017).

Assays:
hENPP2 [1] = molecular target: T1, hENPP2 (UniProtKB/SwissProt Q13822) (Homo sapiens (Human), UniProt Q13822); test: hENPP2 biochemical assay, LPC as substrate; conditions: LPC (palmitoyl 16:0) as substrate
Outline: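 Human ENPP2 in 50 mM Tris-HCl pH 8.5, 500 mM NaCl, 5 mM KCl, 10 mM CaCl2, 0.1% fatty-acid-free BSA, reacted 30 min at 37 °C with LPC 16:0 (150 µM solution added 1:1). Released choline measured via choline oxidase/peroxidase/TOOS/4-aminoantipyrine quinoneimine dye at 555 nm; IC50 reported.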

hENPP2 [2] = molecular target: T1, hENPP2; test: fluorescent hENPP2 biochemical assay, FS-3 as substrate; conditions: read-out: FS3-IC50
Outline: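 hENPP2 in 50 mM Tris-HCl pH 8.0, 250 mM NaCl, 5 mM KCl, 1 mM MgCl2, 1 mM CaCl2, 0.1% fatty-acid-free BSA, preincubated with compound 30 min at room temperature. The 0.75 μM FS-3 solution was added and the mixture incubated 30 min at 30° C. Fluorescence (ex 485/em 520 nm) gives IC50.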

LPA 18:2 in rat plasma = test: Rat whole blood (plasma) LPA assay; format: biochemical; conditions: 2 h at 37 C, LPA 18:2 by LC-MS/MS
Method: Whole blood is collected from rats or mouse by exsanguinations on sodium heparin tube, then after centrifugation at 3000 rpm for 15 min at 4° C., plasma is stored at −80° C. Compounds are diluted in DMSO in concentration dependent manner then 0.5 μL are dispensed into 96-well plate placed in ice. Plasma is defrosted on ice then 49.5 μL of plasma are added into the well containing 0.5 μL of compound (1% DMSO final). Plates are covered with a lid in polypropylene and incubated at +37° C., 5% CO2, for 2 h under gentle shaking (except controls which are stored at −20° C.).
At the end of the incubation, controls are defrosted in ice and transferred in the incubated plates for LC-MS/MS analysis with a non GLP-validated method. For the analysis, plasma proteins from a 10 μL incubated plates are precipitated with an excess of methanol containing the internal standard, LPA 17:0. After centrifugation, the corresponding supernatant is injected on a C18 column. Analytes are eluted out of the column under isocratic conditions. An API5500 QTRAP mass spectrometer (ABSciex™) is used for the detection of LPA 18:2. No calibration curve is prepared for LPA 18:2, however relative quantities are evaluated based on the peak area.

Compound | IC50 (hENPP2 [1]) | IC50 (hENPP2 [2]) | IC50 (LPA 18:2 in rat plasma)
CCc1nc2c(C)cc(N3CCN(CC(=O)N4CC[C@@H](O)C4)CC3)cn2c1N(C)c1nc(-c2ccc(F)cc2)c(C#N)s1 [Compound 4, (R)-2-((2-ethyl-6-(4-(2-(3-hydroxypyrrolidin-1-yl)-2-oxoethyl)piperazin-1-yl)-8-methylimidazo[1,2-a]pyridin-3-yl)(methyl)amino)-4-(4-fluorophenyl)thiazole-5-carbonitrile] | 100 to 500 nM | 0.01 to 100 nM | 100 to 500 nM
CCc1nc2c(C)cc(N3CCN(CC(=O)N4CC[C@H](O)C4)CC3)cn2c1N(C)c1nc(-c2ccc(F)cc2)c(C#N)s1 [Compound 5, (S)-2-((2-ethyl-6-(4-(2-(3-hydroxypyrrolidin-1-yl)-2-oxoethyl)piperazin-1-yl)-8-methylimidazo[1,2-a]pyridin-3-yl)(methyl)amino)-4-(4-fluorophenyl)thiazole-5-carbonitrile] | 100 to 500 nM | 0.01 to 100 nM | 500 to 1000 nM
CCc1nc2ccc(N3CCN(Cc4ncco4)CC3)cn2c1N(C)c1nc(-c2ccc(F)cc2)cs1 [Compound 40] | > 1000 nM | 0.01 to 100 nM | 500 to 1000 nM
CCc1nc2ccc(N3CCN(C(=O)C4CCCN4)CC3)cn2c1N(C)c1nc(-c2ccc(F)cc2)cs1 (stereo not shown) [Compound 46, (4-(2-ethyl-3-((4-(4-fluorophenyl)thiazol-2-yl)(methyl)amino)imidazo[1,2-a]pyridin-6-yl)piperazin-1-yl)(pyrrolidin-2-yl)methanone] | > 1000 nM | 0.01 to 100 nM | > 1000 nM
CCc1nc2ccc(N3CCN(C(=O)CCCN(C)C)CC3)cn2c1N(C)c1nc(-c2ccc(F)cc2)cs1 [Compound 53, 4-(dimethylamino)-1-(4-(2-ethyl-3-((4-(4-fluorophenyl)thiazol-2-yl)(methyl)amino)imidazo[1,2-a]pyridin-6-yl)piperazin-1-yl)butan-1-one] | > 1000 nM | 0.01 to 100 nM | > 1000 nM
CCc1nc2ccc(N3CCN(S(C)(=O)=O)CC3)cn2c1N(C)c1nc(-c2ccc(F)cc2)cs1 [Compound 54, N-(2-ethyl-6-(4-(methylsulfonyl)piperazin-1-yl)imidazo [1,2-a]pyridin-3-yl)-4-(4-fluorophenyl)-N-methylthiazol-2-amine] | 500 to 1000 nM | 0.01 to 100 nM | > 1000 nM
CCc1nc2ccc(N3CCN(S(=O)(=O)CCCN(C)C)CC3)cn2c1N(C)c1nc(-c2ccc(F)cc2)cs1 [Compound 56, N-(6-(4-(3-(dimethylamino)propyl-sulfonyl)piperazin-1-yl)-2-ethylimidazo[1,2-a]pyridin-3-yl)-4-(4-fluorophenyl)-N-methylthiazol-2-amine] | 500 to 1000 nM | 0.01 to 100 nM | > 1000 nM
CCc1nc2ccc(N3CCN(S(=O)(=O)CCCO)CC3)cn2c1N(C)c1nc(-c2ccc(F)cc2)cs1 [Compound 58, 3-(4-(2-ethyl-3-((4-(4-fluorophenyl)thiazol-2-yl)(methyl)amino)imidazo[1,2-a]pyridin-6-yl)piperazin-1-ylsulfonyl)propan-1-ol] | > 1000 nM | 0.01 to 100 nM | > 1000 nM
CCc1nc2ccc(C3=CCN(S(C)(=O)=O)CC3)cn2c1N(C)c1nc(-c2ccc(F)cc2)cs1 [Compound 66, N-(2-ethyl-6-(1-(methylsulfonyl)-1,2,3,6-tetrahydropyridin-4-yl)imidazo[1,2-a]pyridin-3-yl)-4-(4-fluorophenyl)-N-methylthiazol-2-amine] | > 1000 nM | 0.01 to 100 nM | > 1000 nM
CCc1nc2ccc(C3=CCN(S(=O)(=O)CCCO)CC3)cn2c1N(C)c1nc(-c2ccc(F)cc2)cs1 [Compound 75, 3-(4-(2-ethyl-3-((4-(4-fluorophenyl)thiazol-2-yl)(methyl)amino)imidazo[1,2-a]pyridin-6-yl)-5,6-dihydropyridin-1(2H)-ylsulfonyl)propan-1-ol] | 500 to 1000 nM | 0.01 to 100 nM | > 1000 nM
CCc1nc2ccc(C3CCN(S(=O)(=O)CCCN(C)C)CC3)cn2c1N(C)c1nc(-c2ccc(F)cc2)cs1 [Compound 87, N-(6-(1-(3-(dimethylamino)propyl-sulfonyl)piperidin-4-yl)-2-ethylimidazo[1,2-a]pyridin-3-yl)-4-(4-fluorophenyl)-N-methylthiazol-2-amine] | 100 to 500 nM | 0.01 to 100 nM | 100 to 500 nM
CCc1nc2ccc(C3CCN(S(=O)(=O)CCCN4CCOCC4)CC3)cn2c1N(C)c1nc(-c2ccc(F)cc2)cs1 [Compound 88, N-(2-ethyl-6-(1-(3-morpholinopropyl-sulfonyl)piperidin-4-yl)imidazo[1,2-a]pyridin-3-yl)-4-(4-fluorophenyl)-N-methylthiazol-2-amine] | 100 to 500 nM | 0.01 to 100 nM | 100 to 500 nM
CCc1nc2ccc(C3CCN(S(=O)(=O)CCN4CCOCC4)CC3)cn2c1N(C)c1nc(-c2ccc(F)cc2)cs1 [Compound 91, N-(2-ethyl-6-(1-(2-morpholinoethylsulfonyl)piperidin-4 yl)imidazo[1,2-a]pyridin-3-yl)-4-(4-fluorophenyl)-N-methylthiazol-2-amine] | 500 to 1000 nM | 0.01 to 100 nM | > 1000 nM
CCc1nc2ccc(C3CCN(S(=O)(=O)CCCO)CC3)cn2c1N(C)c1nc(-c2ccc(F)cc2)cs1 [Compound 94, 3-[4-(2-Ethyl-3-{[4-(4-fluoro-phenyl)-thiazol-2-yl]-methyl-amino}-imidazo[1,2-a]pyridin-6-yl)-piperidine-1-sulfonyl]-propan-1-ol] | 500 to 1000 nM | 0.01 to 100 nM | 500 to 1000 nM
CCc1nc2ccc(C3CCN(S(=O)(=O)CCCO)CC3)cn2c1N(C)c1nc(-c2ccc(F)cc2)c(F)s1 [Compound 95, 3-[4-(2-Ethyl-3-{[5-fluoro-4-(4-fluoro-phenyl)-thiazol-2-yl]-methyl-amino}-imidazo[1,2-a]pyridin-6-yl)-piperidine-1-sulfonyl]-propan-1-ol] | > 1000 nM | 0.01 to 100 nM | 100 to 500 nM
CCc1nc2ccc(C3CCN(S(C)(=O)=O)CC3)cn2c1N(C)c1nc(-c2ccc(F)cc2C#N)cs1 [Compound 96, 2-(2-((2-ethyl-6-(1-(methylsulfonyl)piperidin-4-yl)imidazo [1,2-a]pyridin-3-yl)(methyl)amino)thiazol-4-yl)-5-fluorobenzonitrile] | 100 to 500 nM | 0.01 to 100 nM | 0.01 to 100 nM
CCc1nc2ccc(C3CCN(S(C)(=O)=O)CC3)cn2c1N(C)c1nc(-c2ccc(F)cc2C)cs1 [Compound 98, N-(2-ethyl-6-(1-(methylsulfonyl)piperidin-4-yl)imidazo[1,2-a]pyridin-3-yl)-4-(4-fluoro-2-methylphenyl)-N-methylthiazol-2-amine] | 500 to 1000 nM | 0.01 to 100 nM | 100 to 500 nM
CCC(=O)N1CCC(c2ccc3nc(CC)c(N(C)c4nc(-c5ccc(F)cc5)c(CO)s4)n3c2)CC1 [Compound 154, 1-(4-(2-ethyl-3-((4-(4-fluorophenyl)-5-(hydroxymethyl)thiazol-2-yl)(methyl)amino)imidazo[1,2-a]pyridin-6-yl)piperidin-1-yl)propan-1-one] | 100 to 500 nM | – | 500 to 1000 nM
CN(c1nc(-c2ccc(F)cc2)c(CO)s1)c1c(CCC#N)nc2ccc(C3CCN(S(C)(=O)=O)CC3)cn12 [Compound 175, 3-(3-((4-(4-fluorophenyl)-5-(hydroxymethyl)thiazol-2-yl)(methyl)amino)-6-(1-(methylsulfonyl)piperidin-4-yl)imidazo[1,2-a]pyridin-2-yl)propanenitrile] | 500 to 1000 nM | – | 100 to 500 nM
